What is called Kd is the constant that tells how readily two partners part at equilibrium. By Ki is commonly meant the dissociation constant of the complex between target and ligand, obtained from inhibition or displacement.

In one assay the test system is Lactococcus lactis. Kind of assay: Inhibitory activity against family of dihydroorotate dehydrogenase 1A (1A DHOD) from Lactococcus lactis at 1 uMolar concentration. More on the design: scale not given: the % may be the effect or the level left. Particulars: 1 uM.
Assay [1] can be described thus: Dissociation constant against dihydroorotate dehydrogenase 1A (1A DHOD) from Lactococcus lactis at 25 degrees C pH 8.0.
Assay [2] in a line: Inhibition constant against dihydroorotate dehydrogenase 1A (1A DHOD) from Lactococcus lactis.
Assay [3] in a line: Inhibition constant against 1A […] dehydrogenase (1A DHOD) from Lactococcus lactis.
The nature of assay [4]: Dissociation constant against 1A […] dehydrogenase (1A DHOD) from Lactococcus lactis at 25 degrees C pH 8.0.

With `O=C(O)c1ccccc1O`, in the assay on Lactococcus lactis, the Activity was 81%. The compound `O=C(O)c1ccc(O)cc1O` displayed an Activity in the assay on Lactococcus lactis of 91%. In turn, `O=C(O)c1cc(O)cc(O)c1` [3,5-DIHYDROXYBENZOIC ACID] showed a Kd in assay [1] of 18.4 µM. The compound also gave an inhibition constant Ki in assay [2] of 21 µM. In the assay with Lactococcus lactis, the Activity is 6%. As for `O=C(O)c1ccc(O)c(O)c1` [PROTOCATECHUIC ACID], the affinity in assay [3], expressed as Ki, was 12 µM. Besides, binding in assay [4] was characterised by a dissociation constant (Kd) of 19 µM. Moreover, in the assay on Lactococcus lactis, the Activity is 7%. For the compound `O=C(O)c1ccc(O)cc1`, the Activity in the assay on Lactococcus lactis was 92%. On the same count and under the same terms, under `O=C(O)c1ccc(O)nc1` stands 94%.
